Measured values from patent US5081131A, “Omega-((hetero)alkyl)benz(cd)-indol-2-amines” (American Cyanamid Company, priority 1988, dated 1992).
Counter-ions that a name gives are not always drawn.

Legend:
[1] = test system: spontaneously hypertensive rats; assay: Hypotensive activity in spontaneously hypertensive rats (MABP); format: in vivo, rat (Okamoto strain); conditions: SHR, gavage, two doses of 10 mg/kg or less 24 h apart, MABP at 28 h; average baseline 160±1.5 mm Hg
In short: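 Male 16-week Okamoto spontaneously hypertensive rats dosed by gavage in 2% starch at 10 mg/kg or less with 0.9% NaCl loading 25 ml/kg; identical dose without saline given 24 hours later. Mean arterial blood pressure measured 28 hours after first dose; 1 to 4 rats per compound.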

[2] = test system: thevetin-induced arrhythmia in guinea pigs; assay: Thevetin (cardiac glycoside)-induced arrhythmia in guinea pigs; format: in vivo, guinea pig; conditions: for Time (Minutes) Before Induced Arrhythmia: saline 22.91±0.5 minutes
Experimental: Male guinea pigs, weighing 300-500 g each, from Summit View Farms, Belvidere, N.J., were anesthetized by intraperitoneal adminstration of urethan at 1500 mg/kg. The animals were then restrained in a supine position. Electrocardiogram leads were attached to the four limbs and Lead II of the electrocardiogram was monitored.
The neck region was exposed and the jugular vein was cannulated. The test compounds were dissolved in saline and administered intravenously at the indicated doses, via a cannula which was then flushed with saline. Five minutes after the test compound was administered, thevetin dissolved in saline was administered by infusion through a cannula at a dose of 0.1 mg/kg/minute in a volume of 0.1 ml. The time until the P wave of the electrocardiogram disappeared was determined.

[3] = target: T1, thromboxane synthetase enzyme (Rattus norvegicus, UniProt P49430); assay: Thromboxane synthetase enzyme inhibition (TXB2 formation in washed platelets, RIA); format: cell-based, spontaneously hypertensive rat; conditions: 1×10^-4 Molar, SHR platelets, 10 min at 37° C.; for inhibition at 100 µM: read-out: % Inhibition (Thromboxane Synthetase Enzyme Inhibition)
T1 construct: endogenous in cells; host or cells: washed platelets from arterial blood of male Okamoto-Aoki spontaneously hypertensive rats (animals from Taconic Farms, Germantown, N.Y.)
T1 sequence (P49430 1-533): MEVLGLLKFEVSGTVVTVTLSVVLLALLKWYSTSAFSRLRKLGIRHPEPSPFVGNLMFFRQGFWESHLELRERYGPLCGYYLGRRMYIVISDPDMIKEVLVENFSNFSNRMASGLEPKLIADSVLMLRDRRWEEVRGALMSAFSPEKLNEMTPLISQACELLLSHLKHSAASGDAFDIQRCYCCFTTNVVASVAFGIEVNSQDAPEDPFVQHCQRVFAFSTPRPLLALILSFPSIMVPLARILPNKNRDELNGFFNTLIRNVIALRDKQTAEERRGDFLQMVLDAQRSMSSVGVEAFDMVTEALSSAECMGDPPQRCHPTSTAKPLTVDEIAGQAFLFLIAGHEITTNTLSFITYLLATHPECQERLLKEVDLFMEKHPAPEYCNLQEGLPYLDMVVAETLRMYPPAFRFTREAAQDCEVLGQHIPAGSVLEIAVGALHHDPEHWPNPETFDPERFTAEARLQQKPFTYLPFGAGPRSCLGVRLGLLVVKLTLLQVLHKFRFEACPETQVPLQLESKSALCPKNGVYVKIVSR
Experimental: The blood was diluted with 3 ml cold saline and centrifuged at room temperature for 15 min at 468×g. The platelet rich plasma (PRP) was separated. The platelets were isolated by certrifuging the PRP for 10 minutes at 1060×g and washed in 4 ml cold oxygenated Krebs phosphate buffer, pH 7.4. The chilled platelets recovered from centrifuging at 800×g for 10 minutes were resuspended in oxygenated Krebs phosphate buffer and diluted to contain 4.0-6.0×10^4 platelets/micro-liters. The inhibition of TX formation was studied by determining the concentration of thromboxane B2 (TXB2), the stable hydrolysis product of TXA2. Assay samples prepared on ice, contained 200 micro-liters platelet suspension, 50 micro-liters saline, and 50 micro-liters […] (saline) or drug under study. The test drug (0.003 mole) was dissolved in 5 ml of saline. […] The assay samples were incubated for 10 minutes at 37° C. in a metabolic shaker at about 60 rpm. The reaction was terminated by immersing the tubes in an ice bath and adding 50 micro-liters of 0.5M citric acid. The samples were centrifuged for 10 minutes at 2000 rpm at 4° C., and the supernatants were decanted.

[4] = intravenous doses as high as 20 mg/kg

inhibition at 100 µM [3] [%]	SMILES	Avg. MABP in mm Hg (No. of Rats) [1] [mm Hg]	Time (Minutes) Before Induced Arrhythmia ([2]; IV dose 10 mg/kg) [min]	Time (Minutes) Before Induced Arrhythmia ([2]; IV dose 20 mg/kg) [min]	also measured
–	CC(CNC1=Nc2cccc3cccc1c23)Cn1ccnc1.O=C(O)/C=C/C(=O)O (stereo not drawn) [N-(3-(1H-imidazol-1-yl)-2-methylpropyl)benz(cd)indol-2-amine, fumarate]	–	–	34.5	% Inhibition (Thromboxane Synthetase Enzyme Inhibition) [3]: 100%
–	CC(CCNC1=Nc2c(Cl)cc(Cl)c3cccc1c23)n1ccnc1 (stereo not drawn) [6,8-Dichloro-N-(3-(1H-imidazol-1-yl)butyl)benz(cd)indol-2-amine]	102	–	32	–
100	CC(CCNC1=Nc2ccc(Br)c3cccc1c23)n1ccnc1 (stereo not drawn) [6-Bromo-N-(3-(1H-imidazol-1-yl)butyl)benz(cd)indol-2-amine]	120	–	–	Time (Minutes) Before Induced Arrhythmia ([2]; IV dose 30 mg/kg): 34.7 min
99	CC(CCNC1=Nc2ccc(S(=O)(=O)N(C)C)c3cccc1c23)n1ccnc1 (stereo not drawn) [N,N-Dimethyl-2-((3-(1H-imidazol-1-yl)butyl)amino)benz(cd)indol-6-sulfonamide]	–	33.6	–	–
75	c1ccc(C(CNC2=Nc3cccc4cccc2c34)(Cn2ccnc2)c2ccccc2)cc1 [N-(3-(1H-imidazol-1-yl)-2,2-diphenylpropyl)benz(cd)indol-2-amine]	127	41	–	–
100	C(=C\Cn1ccnc1)/CNC1=Nc2cccc3cccc1c23 [(E)-N-(4-(1H-imidazol-1-yl)-2-butenyl)benz(cd)indol-2-amine, hydriodide]	–	34.3	–	–
–	O=C(O)/C=C/C(=O)O.c1cc2c3c(cccc3c1)C(NCCCCn1ccnc1)=N2 [N-(4-(1H-imidazol-1-yl)butyl)benz(cd)indol-2-amine, fumarate]	106	31	–	% Inhibition (Thromboxane Synthetase Enzyme Inhibition) [3]: 100%
–	Cl.Cl.c1cc2c3c(cccc3c1)C(NCCCn1ccnc1)=N2 [N-(3-(1H-imidazol-1-yl)propyl)benz(cd)indol-2-amine, dihydrochloride]	87	48.5	–	% Inhibition (Thromboxane Synthetase Enzyme Inhibition) [3]: 85%
97	Brc1ccc2c3c(cccc13)C(NCCCCCn1ccnc1)=N2 [6-Bromo-N-(5-(1H-imidazol-1-yl)pentyl)benz(cd)indol-2-amine]	118	–	37	–
–	CC(=Cc1ccc(Cc2cccnc2)cc1)C(=O)O [OKY-1581, 2-methyl-3-(4-(3-pyridinylmethyl)phenyl-2-propenoic acid, sodium salt, reference compound]	–	–	–	activity in thevetin-induced arrhythmia test [2, 4]: inactive; time before arrhythmia occurred [2, 4]: 24.3 ± 2.2 min
–	Clc1cc(Cl)c2cccc3c2c1N=C3NCCCCCn1ccnc1 [6,8-Dichloro-N-(5-(1H-imidazol-1-yl)pentyl)benz(cd)indol-2-amine]	119	–	33.4	–
99	c1cncc(CCNC2=Nc3cccc4cccc2c34)c1 [N-(2-(3-Pyridinyl)ethyl)benz(cd)indol-2-amine sesqui-fumarate]	126	–	37	–
100	O=C(CNC1=Nc2cccc3cccc1c23)NCCCn1ccnc1 [2-(Benz(cd)indol-2-ylamino)-N-(3-(1H-imidazol-1-yl)propyl)acetamide]	–	–	–	Time (Minutes) Before Induced Arrhythmia ([2]; IV dose 25 mg/kg): 33 min
100	CN(C)S(=O)(=O)c1ccc2c3c(cccc13)C(NCCCn1ccnc1)=N2 [N,N-Dimethyl-2-((3-(1H-imidazol-1-yl)propyl)amino)benz(cd)indol-6-sulfonamide]	–	–	33.4	–

SMILES	inhibition at 100 µM [3] [%]	Avg. MABP in mm Hg (No. of Rats) [1] [mm Hg]	Time (Minutes) Before Induced Arrhythmia ([2]; IV dose 10 mg/kg) [min]	Time (Minutes) Before Induced Arrhythmia ([2]; IV dose 20 mg/kg) [min]	also measured
O=C(O)/C=C/C(=O)O.c1cc2c3c(cccc3c1)C(NCCCCCCCCCCn1ccnc1)=N2 [N-(10-(1H-imidazol-1-yl)decyl)benz(cd)indol-2-amine, fumarate]	65	124	34.2	–	–
O=C(O)/C=C/C(=O)O.c1ccc(C(CCn2ccnc2)NC2=Nc3cccc4cccc2c34)cc1 (stereo not drawn) [N-(3-(1H-imidazol-1-yl)-1-phenylpropyl)benz(cd)indol-2-amine, fumarate]	100	–	–	–	Time (Minutes) Before Induced Arrhythmia ([2]; IV dose 30 mg/kg): 34 min
Clc1ccc2c3c(cccc13)C(NCCCCn1ccnc1)=N2.O=C(O)/C=C/C(=O)O [6-Chloro-N-(4-(1H-imidazol-1-yl)butyl)benz(cd)indol-2-amine, fumarate]	100	115	31.5	–	–
